Holding throughout (test): relative viability (nuclei count vs DMSO), 5 days (fraction); higher = more cells survive
Compound in assay [1]: CC1CC(=O)N(C2=CN=C(N=C2N1C3CCCC3)NC4=C(C=C(C=C4)C(=O)NC5CCN(CC5)C)OC)C [NPK76-II-72-1] + N=C(N)NC(=N)NCCc1ccccc1 [Phenformin] (partner 250 µM)
A digest of the protocol:
(§1)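 Medians of duplicate plates are given as relative viability. That measure is the nuclei count in treated wells divided by the count in vehicle wells. Counts were taken on 4× images of lung cancer cell lines in 1536-well plates, 5 days after pin-tool dosing the day after seeding with one drug alone or a fixed anchor-drug dose plus five library-drug doses (not always all listed) in √10 steps.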

Compound in assay [2]: CC1CC(=O)N(C2=CN=C(N=C2N1C3CCCC3)NC4=C(C=C(C=C4)C(=O)NC5CCN(CC5)C)OC)C [NPK76-II-72-1] + CC(C)C[C@H](NC(=O)[C@H](Cc1ccccc1)NC(=O)c1cnccn1)B(O)O [Bortezomib] (partner 0.002 µM)
Put shortly:
as §1

Compound in the assay “BI-2536 + Foretinib”: CC[C@@H]1C(=O)N(C)c2cnc(Nc3ccc(C(=O)NC4CCN(C)CC4)cc3OC)nc2N1C1CCCC1 [BI-2536] + COc1cc2c(Oc3ccc(NC(=O)C4(C(=O)Nc5ccc(F)cc5)CC4)cc3F)ccnc2cc1OCCCN1CCOCC1 [Foretinib] (partner 0.25 µM)
Put shortly:
as §1

Compound in the assay “NPK76-II-72-1 + OSI-027”: CC1CC(=O)N(C2=CN=C(N=C2N1C3CCCC3)NC4=C(C=C(C=C4)C(=O)NC5CCN(CC5)C)OC)C [NPK76-II-72-1] + COc1cccc2cc(-c3nc([C@H]4CC[C@H](C(=O)O)CC4)n4ncnc(N)c34)[nH]c12 [OSI-027] (partner 0.5 µM)
A digest of the protocol:
as §1

With UMC-11, the relative viability was determined as 0.318 in assay [1] (first compound 0.01 µM); 0.32 in assay [1] (first compound 0.03162 µM); 0.346 in assay [1] (first compound 0.1 µM); 0.344 in assay [1] (first compound 1 µM); 0.743 in assay [2] (first compound 0.01 µM); 0.605 in assay [2] (first compound 0.03162 µM). Further, the relative viability in assay [2] (first compound 0.1 µM) was 0.773; in assay [2] (first compound 0.3162 µM) it was 0.659; in assay [2] (first compound 1 µM), 0.788; with BI-2536 + Foretinib (first compound 0.01 µM), 0.927; with BI-2536 + Foretinib (first compound 0.03162 µM), 0.661; with BI-2536 + Foretinib (first compound 0.1 µM), 0.174. For the same cell line, the relative viability is 0.19 with BI-2536 + Foretinib (first compound 0.3162 µM); 0.191 with BI-2536 + Foretinib (first compound 1 µM); 0.435 with NPK76-II-72-1 + OSI-027 (first compound 0.01 µM); 0.424 with NPK76-II-72-1 + OSI-027 (first compound 0.03162 µM); 0.521 in the assay with NPK76-II-72-1 + OSI-027 (first compound 0.1 µM); 0.47 in the assay with NPK76-II-72-1 + OSI-027 (first compound 1 µM).

The values are drawn from the supplement of paper PMC10307832.
